The target of the test is T1, 11βHSD1 (Homo sapiens, UniProt P28845).
T1 construct: made in house; host or cells: Sf-21 insect cells infected with recombinant baculovirus BAC-HHSD1 (pFASTBAC1-derived pFB-hHSD1); microsome fraction
Description: Determination of 11βHSD1 inhibitory activity (microsome fraction, cortisone to cortisole, competitive ELISA). It is filed as biochemical. To be noted: microsome fraction of Reference Example 2a; 500 nM cortisone, 400 μM NADPH substrate solution; room temperature 60 min. Here is the method: The enzyme reaction was performed in a polypropylene 96-well plate (Corning). The microsome fraction obtained in Reference Example 2a was diluted with a buffer (30 mM Tris-HCl, 1 mM EDTA, 0.1% BSA, pH 7.2) to a concentration of 100 μg/ml. A solution (2.5 μl) of the test compound in dimethyl sulfoxide was added to the obtained diluted solution (22.5 μl) and the mixture was incubated at room temperature for 5 min. A substrate solution (500 nM cortisone, 400 μM NADPH) (25 μl) was added to the obtained suspension, allowed to react at room temperature for 60 min and the reaction was quenched by the addition of 2 mM 18-β-glycyrrhetinic acid (Sigma Ltd.) solution (5 μl). The produced cortisole was quantified by the following competitive ELISA.
Anti-mouse IgG antibody (Chemicon) was suspended in 100 mM sodium phosphate buffer (pH 9.0) to a concentration of 5 μg/ml. The obtained suspension (100 μl) was added to a 96-well black plate (Maxisorp, Nunc), and incubated overnight at 4° C. to immobilize a first antibody. The plate was washed with PBS containing 0.05% Tween20 (Bio-Rad), 30% block ace (Yukijirushi) ([…]) diluted with PBS was added. After blocking at room temperature for 1 hr or more, the plate was washed with PBS containing 0.05% Tween20. Anti-cortisole antibody (assay design) (100 μl) diluted 4-fold with a buffer (30 mM Tris-HCl, 1 mM EDTA, pH 7.2) was added to the plate, and the plate was incubated at room temperature for 90 min. The plate was washed 4 times with PBS containing 0.05% Tween20, the enzyme reaction mixture (25 μl) and alkaline phosphatase conjugated cortisole (assay design) (25 μl) were added, and the plate was incubated at room temperature for 120 min. The plate was washed 4 times with PBS containing 0.05% Tween20, a luminescence substrate for alkaline phosphatase, Immun star (Enhancer plus, Bio-Rad) (50 μl) was added. The plate was incubated at room temperature for 10 min and the level of luminescence was measured by Arvo malfi label counter (Wallac). The concentration (IC50 value) of the test compound necessary for inhibiting the 11βHSD1 activity by 50% was calculated by PRISM2.01 (Graphpad Software).
Background: In an ELISA, binding on a coated surface is turned into a signal by an enzyme label.

Results on 16 compounds are retold here after US20090264650A1, “Prophylactic/Therapeutic Agent for Diabetes” (priority 2005, published 2009).

T1 sequence (P28845 whole entry): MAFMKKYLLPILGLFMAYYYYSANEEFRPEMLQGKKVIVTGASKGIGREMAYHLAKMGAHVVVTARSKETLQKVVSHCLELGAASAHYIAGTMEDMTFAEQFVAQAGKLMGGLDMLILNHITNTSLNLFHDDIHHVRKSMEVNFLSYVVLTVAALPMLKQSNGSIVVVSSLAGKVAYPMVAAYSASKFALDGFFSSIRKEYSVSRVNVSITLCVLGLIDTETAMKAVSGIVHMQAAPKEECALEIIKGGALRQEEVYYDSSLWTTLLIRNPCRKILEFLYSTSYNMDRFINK

As a reminder, the IC50 is the midpoint of a concentration-inhibition curve. Low readings indicate inhibition by little substance, high ones a need for much substance. Compound `O=C(Nc1ccc(CO)cc1)Nc1ccc(CC2CCN(C3C4CC5CC3CC(O)(C5)C4)C2=O)c(Cl)c1` (stereo not shown) [Example 468A, N-(3-chloro-4-{[1-(5-hydroxy-2-adamantyl)-2-oxopyrrolidin-3-yl]methyl}phenyl)-N′-[4-(hydroxymethyl)phenyl]urea] gave a half-maximal inhibitory concentration (IC50) of 19 nM. For `O=C1C(Cc2c(Cl)cccc2Cl)CCN1C1CCCCC1` (stereo not shown) [Example 9A, 1-cyclohexyl-3-(2,6-dichlorobenzyl)pyrrolidin-2-one], the 50% inhibitory concentration (IC50) worked out at 7.9 nM. For the compound `CC1(O)CCC(N2CCC(Cc3c(Cl)cccc3Cl)C2=O)CC1` (single isomer, unassigned) [Example 38A, 3-(2,6-dichlorobenzyl)-1-(4-hydroxy-4-methylcyclohexyl)pyrrolidin-2-one], the IC50 is 26 nM. For the compound `CS(=O)(=O)Nc1cccc(-c2ccc(CC3CCN(C4C5CC6CC4CC(O)(C6)C5)C3=O)c(Cl)c2)c1` (stereo not shown) [Example 470A, N-(3′-chloro-4′-{[1-(5-hydroxy-2-adamantyl)-2-oxopyrrolidin-3-yl]methyl}biphenyl-3-yl)methanesulfonamide], the half-maximal inhibitory concentration (IC50) was 37 nM.

Turning to `CC1(O)CCC(N2CCC(Cc3ccc(OCC(=O)NCc4ccc(C(F)(F)F)cc4)cc3Cl)C2=O)CC1` (single isomer, unassigned) [Example 603A, 2-(3-chloro-4-{[1-(4-hydroxy-4-methylcyclohexyl)-2-oxopyrrolidin-3-yl]methyl}phenoxy)-N-[4-(trifluoromethyl)benzyl]acetamide], the IC50 amounted to 98 nM. The value for `O=C1N(Cc2ccc(C(F)(F)F)cc2)CCN1c1ccc(CC2CCN(C3C4CC5CC3CC(O)(C5)C4)C2=O)c(Cl)c1` (stereo not shown) [Example 510A, 1-(3-chloro-4-{[1-(5-hydroxy-2-adamantyl)-2-oxopyrrolidin-3-yl]methyl}phenyl)-3-[4-(trifluoromethyl)benzyl]imidazolidin-2-one] was 9.9 nM; that for `Cc1ccccc1CN1C(=O)N(Cc2c(Cl)cccc2Cl)CC1(C)O` (stereo not shown) [Example 32B, 1-(2,6-dichlorobenzyl)-4-hydroxy-4-methyl-3-(2-methylbenzyl)imidazolidin-2-one] was 53 nM. Turning to `CC1(O)CCC(N2CCC(Cc3ccc(-c4cccc(CO)c4)cc3Cl)C2=O)CC1` (stereo not shown) [Example 654A, 3-{[3-chloro-3′-(hydroxymethyl)biphenyl-4-yl]methyl}-1-(4-hydroxy-4-methylcyclohexyl)pyrrolidin-2-one], the IC50 stood at 150 nM. The value for `COc1ccccc1CC1CCN(C2CCc3ccccc32)C1=O` (single isomer, unassigned) [Example 66A, 1-(2,3-dihydro-1H-inden-1-yl)-3-(2-methoxybenzyl)pyrrolidin-2-one] was 56 nM; that for `CC1(O)CCC(N2CCC(Cc3ccc(OCC(=O)NCc4ccc(C(F)(F)F)cc4)cc3Cl)C2=O)CC1` (single isomer, unassigned) [Example 602A, 2-(3-chloro-4-{[1-(4-hydroxy-4-methylcyclohexyl)-2-oxopyrrolidin-3-yl]methyl}phenoxy)-N-[4-(trifluoromethyl)benzyl]acetamide] was 26 nM; that for `CC1(O)CCC(N2CCC(Cc3ccc(Cl)cc3Cl)C2=O)CC1` (single isomer, unassigned) [Example 413A, 3-(2,4-dichlorobenzyl)-1-(4-hydroxy-4-methylcyclohexyl)pyrrolidin-2-one] was 29 nM. For `CN(Cc1c(Cl)cccc1Cl)C1CCN(C2CCCCC2)C1=O` (stereo not shown) [Example 94A, 1-cyclohexyl-3-[N-(2,6-dichlorobenzyl)N-methylamino]pyrrolidin-2-one], the half-inhibitory concentration (IC50) was 85 nM. The compound `Cc1ccccc1CN1CCCC(Cc2c(Cl)cccc2Cl)C1=O` (stereo not shown) [Example 5C, 3-(2,6-dichlorobenzyl)-1-(2-methylbenzyl)piperidin-2-one] came in with an IC50 of 110 nM. The value for `CC1(O)CCC(N2CCC(Cc3ccc(Cl)cc3Cl)C2=O)CC1` (single isomer, unassigned) [Example 412A, 3-(2,4-dichlorobenzyl)-1-(4-hydroxy-4-methylcyclohexyl)pyrrolidin-2-one] was 430 nM. `CC1(O)CCC(N2CCC(Cc3ccc(OCc4nc(-c5ccc(F)cc5)no4)cc3Cl)C2=O)CC1` (stereo not shown) [Example 619A, 3-(2-chloro-4-{[3-(4-fluorophenyl)-1,2,4-oxadiazol-5-yl]methoxy}benzyl)-1-(4-hydroxy-4-methylcyclohexyl)pyrrolidin-2-one] showed an IC50 of 46 nM. The compound `Cc1ccccc1CN1CCCN(Cc2c(Cl)cccc2Cl)C1=O` [Example 2D, 1-(2,6-dichlorobenzyl)-3-(2-methylbenzyl)tetrahydropyrimidin-2(1H)-one] displayed an IC50 of 130 nM.
